Test results published in ChEMBL document CHEMBL5723584 (2023).
Activity calls are given as the source filed them. No cut-off for these calls is given here.

What was measured:
[1] = target: Protein kinase C beta type (Homo sapiens) (UniProt P05771); assay: activity of PKCbetaI(h) at 1.0 µM in the Eurofins Kinase panel; settings: Compound concentration 1.0 uM
[2] = target: Cyclin-dependent kinase 5/CDK5 activator 1 (Homo sapiens) (UniProt Q00535+Q15078); assay: activity of CDK5/p35(h) at 1.0 µM in the Eurofins Kinase panel; type: protein-complex assay; settings: Compound concentration 1.0 uM
[3] = target: PI3-kinase p110-alpha/p85-alpha (Homo sapiens) (UniProt P27986+P42336); assay: activity of PI3 Kinase (p110alpha/p85alpha)(h) at 1.0 µM in the Eurofins Kinase panel; type: protein-complex assay; settings: Compound concentration 1.0 uM
[4] = target: Serine/threonine-protein kinase mTOR (Homo sapiens) (UniProt P42345); assay: activity of mTOR(h) at 1.0 µM in the Eurofins Kinase panel; settings: Compound concentration 1.0 uM
[5] = target: Serine/threonine-protein kinase 16 (Homo sapiens) (UniProt O75716); assay: activity of STK16(h) at 1.0 µM in the Eurofins Kinase panel; settings: Compound concentration 1.0 uM
[6] = target: Wee1-like protein kinase (Homo sapiens) (UniProt P30291); assay: activity of Wee1(h) at 1.0 µM in the Eurofins Kinase panel; settings: Compound concentration 1.0 uM
[7] = target: Mitogen-activated protein kinase kinase kinase 3 (Homo sapiens) (UniProt Q99759); assay: activity of MEKK3(h) at 1.0 µM in the Eurofins Kinase panel; settings: Compound concentration 1.0 uM
[8] = target: Dual specificity protein kinase CLK2 (Homo sapiens) (UniProt P49760); assay: activity of CLK2(h) at 1.0 µM in the Eurofins Kinase panel; settings: Compound concentration 1.0 uM
[9] = target: Serine/threonine-protein kinase PLK4 (Homo sapiens) (UniProt O00444); assay: activity of Plk4(h) at 1.0 µM in the Eurofins Kinase panel; settings: Compound concentration 1.0 uM
[10] = target: Mitogen-activated protein kinase 13 (Homo sapiens) (UniProt O15264); assay: activity of SAPK4(h) at 1.0 µM in the Eurofins Kinase panel; settings: Compound concentration 1.0 uM
Mitogen-activated protein kinase 13 (Homo sapiens), sequence (O15264 whole entry): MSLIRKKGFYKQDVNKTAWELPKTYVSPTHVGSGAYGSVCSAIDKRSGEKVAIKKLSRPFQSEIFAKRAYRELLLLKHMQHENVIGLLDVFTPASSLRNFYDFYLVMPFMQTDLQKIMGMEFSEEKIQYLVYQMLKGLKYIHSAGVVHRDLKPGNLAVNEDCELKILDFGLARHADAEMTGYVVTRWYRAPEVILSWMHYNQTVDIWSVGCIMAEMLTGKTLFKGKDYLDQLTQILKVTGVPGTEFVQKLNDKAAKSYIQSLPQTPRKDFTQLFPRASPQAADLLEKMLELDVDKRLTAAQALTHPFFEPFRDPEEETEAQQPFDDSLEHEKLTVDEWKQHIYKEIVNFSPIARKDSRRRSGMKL

[11] = target: Serine/threonine-protein kinase Chk2 (Homo sapiens) (UniProt O96017); assay: activity of CHK2(h) at 1.0 µM in the Eurofins Kinase panel; settings: Compound concentration 1.0 uM
[12] = target: Dual specificity mitogen-activated protein kinase kinase 2 (Homo sapiens) (UniProt P36507); assay: activity of MEK2(h) at 1.0 µM in the Eurofins Kinase panel; settings: Compound concentration 1.0 uM
[13] = target: Homeodomain-interacting protein kinase 4 (Homo sapiens, UniProt Q8NE63); assay: Promega NanoBRET (HIPK4)
[14] = target: Serine/threonine-protein kinase ICK (Homo sapiens) (UniProt Q9UPZ9); assay: activity of ICK(h) at 1.0 µM in the Eurofins Kinase panel; settings: Compound concentration 1.0 uM
[15] = target: Ephrin type-A receptor 3 (Homo sapiens) (UniProt P29320); assay: activity of EphA3(h) at 1.0 µM in the Eurofins Kinase panel; settings: Compound concentration 1.0 uM
[16] = target: Serine/threonine-protein kinase ULK3 (Homo sapiens) (UniProt Q6PHR2); assay: activity of ULK3(h) at 1.0 µM in the Eurofins Kinase panel; settings: Compound concentration 1.0 uM
Serine/threonine-protein kinase ULK3 (Homo sapiens), sequence (Q6PHR2 whole entry): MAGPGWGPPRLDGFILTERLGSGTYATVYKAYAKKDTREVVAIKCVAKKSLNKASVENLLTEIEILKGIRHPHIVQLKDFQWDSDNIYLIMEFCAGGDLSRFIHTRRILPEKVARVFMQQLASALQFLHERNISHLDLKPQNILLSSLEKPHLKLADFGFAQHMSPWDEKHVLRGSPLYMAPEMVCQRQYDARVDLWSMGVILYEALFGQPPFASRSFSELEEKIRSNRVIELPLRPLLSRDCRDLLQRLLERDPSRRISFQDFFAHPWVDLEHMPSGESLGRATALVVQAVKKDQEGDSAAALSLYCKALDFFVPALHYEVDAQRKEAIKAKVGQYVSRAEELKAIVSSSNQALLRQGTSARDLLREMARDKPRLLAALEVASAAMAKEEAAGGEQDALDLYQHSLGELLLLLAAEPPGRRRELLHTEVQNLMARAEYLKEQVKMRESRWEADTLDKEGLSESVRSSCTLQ

[17] = target: Receptor tyrosine-protein kinase erbB-2 (Homo sapiens) (UniProt P04626); assay: activity of ErbB2(h) at 1.0 µM in the Eurofins Kinase panel; settings: Compound concentration 1.0 uM
[18] = target: Homeodomain-interacting protein kinase 2 (Homo sapiens) (UniProt Q9H2X6); assay: activity of HIPK2(h) at 1.0 µM in the Eurofins Kinase panel; settings: Compound concentration 1.0 uM
[19] = target: Tyrosine-protein kinase receptor TYRO3 (Homo sapiens) (UniProt Q06418); assay: activity of Rse(h) at 1.0 µM in the Eurofins Kinase panel; settings: Compound concentration 1.0 uM
[20] = target: T1, Citron Rho-interacting kinase (Homo sapiens, UniProt O14578); assay: NanoLuc NanoBRET (CIT); settings: read-out: Kd
T1 sequence (O14578 whole entry): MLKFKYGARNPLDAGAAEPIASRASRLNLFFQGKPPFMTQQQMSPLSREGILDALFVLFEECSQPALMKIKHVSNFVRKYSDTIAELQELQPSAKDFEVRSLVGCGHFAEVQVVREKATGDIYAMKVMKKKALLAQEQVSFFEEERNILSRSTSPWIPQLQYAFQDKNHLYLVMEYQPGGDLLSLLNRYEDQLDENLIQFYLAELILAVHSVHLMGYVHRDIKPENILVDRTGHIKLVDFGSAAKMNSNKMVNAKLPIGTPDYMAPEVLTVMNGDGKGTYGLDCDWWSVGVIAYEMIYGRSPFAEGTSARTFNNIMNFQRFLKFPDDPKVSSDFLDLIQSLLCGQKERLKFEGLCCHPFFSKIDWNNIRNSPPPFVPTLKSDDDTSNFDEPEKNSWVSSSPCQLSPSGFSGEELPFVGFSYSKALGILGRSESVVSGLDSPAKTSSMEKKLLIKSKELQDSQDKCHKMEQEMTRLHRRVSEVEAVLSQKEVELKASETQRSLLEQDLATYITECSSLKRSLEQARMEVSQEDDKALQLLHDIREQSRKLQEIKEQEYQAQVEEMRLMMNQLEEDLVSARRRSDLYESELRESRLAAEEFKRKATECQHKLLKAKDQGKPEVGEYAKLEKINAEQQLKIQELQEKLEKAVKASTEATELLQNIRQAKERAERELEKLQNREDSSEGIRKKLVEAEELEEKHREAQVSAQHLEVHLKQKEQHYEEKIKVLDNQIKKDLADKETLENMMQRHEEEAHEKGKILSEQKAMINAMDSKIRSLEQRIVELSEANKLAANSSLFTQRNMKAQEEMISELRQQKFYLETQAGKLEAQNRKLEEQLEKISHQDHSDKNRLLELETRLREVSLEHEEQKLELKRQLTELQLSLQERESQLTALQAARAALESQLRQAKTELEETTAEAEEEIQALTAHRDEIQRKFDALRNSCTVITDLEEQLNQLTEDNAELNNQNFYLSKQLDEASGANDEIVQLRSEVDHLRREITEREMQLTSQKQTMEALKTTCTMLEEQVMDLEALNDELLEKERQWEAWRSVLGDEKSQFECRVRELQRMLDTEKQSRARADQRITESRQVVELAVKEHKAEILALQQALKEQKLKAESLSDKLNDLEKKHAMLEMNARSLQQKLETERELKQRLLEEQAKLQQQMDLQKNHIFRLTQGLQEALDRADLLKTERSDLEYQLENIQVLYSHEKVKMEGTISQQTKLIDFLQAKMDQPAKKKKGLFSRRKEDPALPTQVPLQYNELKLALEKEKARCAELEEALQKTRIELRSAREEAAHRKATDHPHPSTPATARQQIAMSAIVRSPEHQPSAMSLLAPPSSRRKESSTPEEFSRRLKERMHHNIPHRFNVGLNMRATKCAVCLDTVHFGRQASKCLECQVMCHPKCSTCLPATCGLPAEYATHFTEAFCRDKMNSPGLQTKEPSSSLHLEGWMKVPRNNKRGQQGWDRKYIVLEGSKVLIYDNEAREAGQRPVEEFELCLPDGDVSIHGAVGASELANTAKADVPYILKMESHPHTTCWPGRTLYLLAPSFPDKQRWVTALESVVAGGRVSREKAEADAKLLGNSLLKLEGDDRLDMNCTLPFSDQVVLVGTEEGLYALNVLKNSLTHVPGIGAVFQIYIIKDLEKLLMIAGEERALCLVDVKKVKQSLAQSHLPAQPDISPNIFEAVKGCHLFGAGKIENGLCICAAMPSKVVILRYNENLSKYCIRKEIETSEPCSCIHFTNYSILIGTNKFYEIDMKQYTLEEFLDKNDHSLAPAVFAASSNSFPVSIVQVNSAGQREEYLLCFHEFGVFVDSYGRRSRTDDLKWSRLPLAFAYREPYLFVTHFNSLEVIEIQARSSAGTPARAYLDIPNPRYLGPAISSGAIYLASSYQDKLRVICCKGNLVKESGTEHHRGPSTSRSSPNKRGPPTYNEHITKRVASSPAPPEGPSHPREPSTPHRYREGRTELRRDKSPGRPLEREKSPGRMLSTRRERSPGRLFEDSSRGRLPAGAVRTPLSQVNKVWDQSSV

[21] = target: G protein-coupled receptor kinase 6 (Homo sapiens) (UniProt P43250); assay: activity of GRK6(h) at 1.0 µM in the Eurofins Kinase panel; settings: Compound concentration 1.0 uM
[22] = target: PI3-kinase p110-delta/p85-alpha (Homo sapiens) (UniProt P27986+O00329); assay: activity of PI3 Kinase (p110delta/p85alpha)(h) at 1.0 µM in the Eurofins Kinase panel; type: protein-complex assay; settings: Compound concentration 1.0 uM
[23] = target: Serine/threonine-protein kinase MARK2 (Homo sapiens) (UniProt Q7KZI7); assay: activity of PAR-1Balpha(h) at 1.0 µM in the Eurofins Kinase panel; settings: Compound concentration 1.0 uM
Serine/threonine-protein kinase MARK2 (Homo sapiens), sequence (Q7KZI7 whole entry): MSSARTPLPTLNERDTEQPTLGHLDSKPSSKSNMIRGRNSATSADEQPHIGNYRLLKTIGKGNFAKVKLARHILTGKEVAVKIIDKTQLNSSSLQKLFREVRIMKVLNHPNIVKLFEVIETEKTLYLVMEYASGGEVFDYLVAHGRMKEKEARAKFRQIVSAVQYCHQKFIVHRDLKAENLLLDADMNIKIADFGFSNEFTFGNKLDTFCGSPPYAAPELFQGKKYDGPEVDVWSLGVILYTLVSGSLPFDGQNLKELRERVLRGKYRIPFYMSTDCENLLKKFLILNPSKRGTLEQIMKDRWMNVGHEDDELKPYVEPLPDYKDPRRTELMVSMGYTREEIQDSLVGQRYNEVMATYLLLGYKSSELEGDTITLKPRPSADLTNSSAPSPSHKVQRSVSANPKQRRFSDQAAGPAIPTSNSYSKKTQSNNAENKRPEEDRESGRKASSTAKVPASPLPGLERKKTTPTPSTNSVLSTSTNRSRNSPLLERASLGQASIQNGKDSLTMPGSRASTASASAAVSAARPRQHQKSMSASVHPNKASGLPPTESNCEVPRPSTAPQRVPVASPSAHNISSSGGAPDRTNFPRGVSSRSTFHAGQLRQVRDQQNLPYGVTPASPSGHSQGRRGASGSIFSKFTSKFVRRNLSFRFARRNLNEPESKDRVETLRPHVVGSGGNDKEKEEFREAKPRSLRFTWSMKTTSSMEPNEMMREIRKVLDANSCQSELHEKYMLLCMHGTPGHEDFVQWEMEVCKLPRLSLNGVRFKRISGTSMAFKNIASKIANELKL

[24] = target: Testis-specific serine/threonine-protein kinase 1 (Homo sapiens) (UniProt Q9BXA7); assay: activity of TSSK1(h) at 1.0 µM in the Eurofins Kinase panel; settings: Compound concentration 1.0 uM
[25] = target: Receptor-type tyrosine-protein kinase FLT3 (Homo sapiens) (UniProt P36888); assay: activity of Flt3(h) at 1.0 µM in the Eurofins Kinase panel; settings: Compound concentration 1.0 uM
Receptor-type tyrosine-protein kinase FLT3 (Homo sapiens), sequence (P36888 whole entry): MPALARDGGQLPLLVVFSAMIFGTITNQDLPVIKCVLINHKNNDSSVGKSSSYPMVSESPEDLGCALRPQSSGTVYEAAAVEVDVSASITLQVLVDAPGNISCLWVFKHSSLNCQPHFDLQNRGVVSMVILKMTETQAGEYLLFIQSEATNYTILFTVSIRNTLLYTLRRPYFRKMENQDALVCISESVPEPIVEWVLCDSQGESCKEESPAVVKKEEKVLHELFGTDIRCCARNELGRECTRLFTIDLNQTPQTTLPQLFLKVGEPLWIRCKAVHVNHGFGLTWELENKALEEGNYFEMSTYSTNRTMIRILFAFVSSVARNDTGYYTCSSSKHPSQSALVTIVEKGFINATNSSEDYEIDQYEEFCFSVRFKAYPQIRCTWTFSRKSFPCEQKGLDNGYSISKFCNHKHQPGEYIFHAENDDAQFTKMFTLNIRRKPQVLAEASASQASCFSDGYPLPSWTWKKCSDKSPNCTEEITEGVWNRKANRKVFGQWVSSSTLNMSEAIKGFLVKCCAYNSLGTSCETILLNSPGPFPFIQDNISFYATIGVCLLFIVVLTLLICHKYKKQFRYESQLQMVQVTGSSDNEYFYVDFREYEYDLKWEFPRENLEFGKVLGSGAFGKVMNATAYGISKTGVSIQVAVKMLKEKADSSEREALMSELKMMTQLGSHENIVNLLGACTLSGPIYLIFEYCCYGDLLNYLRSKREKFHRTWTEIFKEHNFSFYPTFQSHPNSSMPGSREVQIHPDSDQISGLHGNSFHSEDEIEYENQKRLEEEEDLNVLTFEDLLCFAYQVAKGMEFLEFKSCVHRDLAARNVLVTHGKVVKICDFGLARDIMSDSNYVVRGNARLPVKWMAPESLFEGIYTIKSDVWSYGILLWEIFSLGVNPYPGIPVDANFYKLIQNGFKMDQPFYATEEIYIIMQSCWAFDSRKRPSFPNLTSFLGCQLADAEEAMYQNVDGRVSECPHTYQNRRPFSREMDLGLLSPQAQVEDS

[26] = target: Ribosomal protein S6 kinase alpha-1 (Homo sapiens) (UniProt Q15418); assay: activity of Rsk1(h) at 1.0 µM in the Eurofins Kinase panel; settings: Compound concentration 1.0 uM
[27] = target: Mitogen-activated protein kinase kinase kinase kinase 1 (Homo sapiens) (UniProt Q92918); assay: activity of HPK1(h) at 1.0 µM in the Eurofins Kinase panel; settings: Compound concentration 1.0 uM
[28] = target: Receptor tyrosine-protein kinase erbB-4 (Homo sapiens) (UniProt Q15303); assay: activity of ErbB4(h) at 1.0 µM in the Eurofins Kinase panel; settings: Compound concentration 1.0 uM
[29] = target: Phosphatidylinositol 3-kinase C2 domain-containing subunit gamma (Homo sapiens) (UniProt O75747); assay: activity of PI3KC2gamma(h) at 1.0 µM in the Eurofins Kinase panel; settings: Compound concentration 1.0 uM
[30] = target: Mitogen-activated protein kinase kinase kinase 10 (Homo sapiens) (UniProt Q02779); assay: activity of MLK2(h) at 1.0 µM in the Eurofins Kinase panel; settings: Compound concentration 1.0 uM
[31] = target: Serine/threonine-protein kinase NIM1 (Homo sapiens) (UniProt Q8IY84); assay: activity of NIM1(h) at 1.0 µM in the Eurofins Kinase panel; settings: Compound concentration 1.0 uM
Serine/threonine-protein kinase NIM1 (Homo sapiens), sequence (Q8IY84 whole entry): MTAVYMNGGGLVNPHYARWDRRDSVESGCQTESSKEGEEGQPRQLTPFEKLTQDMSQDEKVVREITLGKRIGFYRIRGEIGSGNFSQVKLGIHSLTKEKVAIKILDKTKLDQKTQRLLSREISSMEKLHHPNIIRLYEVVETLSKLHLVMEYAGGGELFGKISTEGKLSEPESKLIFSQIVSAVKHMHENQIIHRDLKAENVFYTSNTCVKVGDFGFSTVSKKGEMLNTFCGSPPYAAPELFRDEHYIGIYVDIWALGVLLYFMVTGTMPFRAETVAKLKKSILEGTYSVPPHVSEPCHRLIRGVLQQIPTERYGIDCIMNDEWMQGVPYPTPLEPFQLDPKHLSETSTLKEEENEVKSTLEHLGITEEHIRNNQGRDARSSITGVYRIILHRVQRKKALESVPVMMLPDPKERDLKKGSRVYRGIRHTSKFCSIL

[32] = target: Activin receptor type-1B (Homo sapiens) (UniProt P36896); assay: activity of ALK4(h) at 1.0 µM in the Eurofins Kinase panel; settings: Compound concentration 1.0 uM
[33] = target: Dual specificity protein kinase CLK1 (Homo sapiens) (UniProt P49759); assay: activity of CLK1(h) at 1.0 µM in the Eurofins Kinase panel; settings: Compound concentration 1.0 uM
[34] = target: T1, Citron Rho-interacting kinase; assay: Promega NanoBRET (CIT)
[35] = target: Serine/threonine-protein kinase OSR1 (Homo sapiens) (UniProt O95747); assay: activity of OSR1(h) at 1.0 µM in the Eurofins Kinase panel; settings: Compound concentration 1.0 uM
[36] = target: Maternal embryonic leucine zipper kinase (Homo sapiens) (UniProt Q14680); assay: activity of MELK(h) at 1.0 µM in the Eurofins Kinase panel; settings: Compound concentration 1.0 uM
[37] = target: PI3K p110 beta/p85 alpha (Homo sapiens) (UniProt P27986+P42338); assay: activity of PI3 Kinase (p110beta/p85alpha)(h) at 1.0 µM in the Eurofins Kinase panel; type: protein-complex assay; settings: Compound concentration 1.0 uM
[38] = target: Serine/threonine-protein kinase PAK 4 (Homo sapiens) (UniProt O96013); assay: activity of PAK4(h) at 1.0 µM in the Eurofins Kinase panel; settings: Compound concentration 1.0 uM
[39] = target: Protein-tyrosine kinase 6 (Homo sapiens) (UniProt Q13882); assay: activity of BRK(h) at 1.0 µM in the Eurofins Kinase panel; settings: Compound concentration 1.0 uM

activity [1]: 90%
activity [2]: 79%
activity [3]: 96%
activity [4]: 95%
activity [5]: 94%
activity [6]: 94%
activity [7]: 107%
activity [8]: 106%
activity [9]: 92%
activity [10]: 94%
activity [11]: 95%
activity [12]: 92%
IC50 [13]: > 10000 nM (not active)
activity [14]: 99%
activity [15]: 79%
activity [16]: 95%
activity [17]: 97%
activity [18]: 105%
activity [19]: 129%
Kd [20]: 9.5 nM (active)
activity [21]: 95%
activity [22]: 110%
activity [23]: 88%
activity [24]: 116%
activity [25]: 84%
activity [26]: 99%
activity [27]: 73%
activity [28]: 94%
activity [29]: 103%
activity [30]: 77%
activity [31]: 112%
activity [32]: 94%
activity [33]: 88%
IC50 [34]: 51 nM (active)
activity [35]: 80%
activity [36]: 82%
activity [37]: 102%
activity [38]: 83%
activity [39]: 83%
Structure (SMILES): Cc1cc2c(-c3ccc(NC(=O)[C@H](N)CC(C)(C)C)cc3C)ccnc2[nH]1
